# Assay results from patent US20080306248A1, “Conjugate of Biomacromolecule with Bioreductive and Preparative Method Thereof” (priority 2005, published 2008).
# How the values were obtained:
# L-02 = assay: MTT cytotoxicity assay, L-02 cells; assay type: cell-based; settings: concentration of MMC or conjugate up to 8 ugMMC/ml
# Experimental: (§1) Conjugate cytotoxicity was assessed using an MTT assay. Cells (SMMC-7721, L-02, etc.) were seeded at a density of 1×10^4 cells/well […] to the assay. At the start of the experiment the culture medium was removed and the conjugate (0-2 mg/lnl in complete medium) was added (100 ul). After 4 h, MTT (20 ul; 5 mg/ml in PBS) was added and the plates re-incubated for a further 5 h. the formazan crystals were dissolved in DMSO and the absorbance read at 550 nm using a microtitre plate reader. The results were expressed as viability(%) relative to a control containing no conjugate.
# SMMC-7721 = assay: MTT cytotoxicity assay, SMMC-7721 cells; assay type: cell-based
# Experimental: as §1
# Experimental for Caco-2 cell monolayers: The transcellular transport of conjugate was evaluated using Caco-2 cell monolayers. Caco-2 cells were maintained in plastic culture flasks. These stock cells were subcultivated before reaching confluence. The medium consisted of Dulbecco's Modified Eagle's Medium supplemented with 10% fetal bovine serum, 1% nonessential amino acid, 2 mM L-glutamine and 100 IU/mL penicillin-10 ug/mL streptomycin. The monolayer cultures were grown in an atmosphere of 5% CO2-95% O2 at 37° C. The cells were given fresh growth medium every 2 days. When the Caco-2 cells had reached confluence, they were harvested with 0.25 mM trypsin and 0.2% EDTA (0.5-1 min at 37° C.), resuspended, and seeded into a new flask, Caco-2 cells were used between passages 45 and 60. For the transport study, Caco-2 cells were seeded at a cell density of 8×10^4 cells/cm^2 on 6-well (3-mm pores, 4.71-cm^2 growth area) Transwell™. The cell monolayers were fed a fresh growth medium every 2 days and were used at 16 to 21 days for the transport experiments. TEER was used to monitor the integrity of the monolayers. Monolayers with TEER above 350/cm^2 (after subtracting the back group value of the transwell) were used in the study.
Compound,viability of L-02 (L-02),"IC50 (SMMC-7721; Homo sapiens, SMMC-7721, viability relative to control containing no conjugate)",transcellular transport by caco-2 cells (transport fraction) (Caco-2 cell monolayers),IC50 to SMMC-7721 (SMMC-7721; viability relative to control containing no conjugate)
"CO[C@@]12[C@H](COC(N)=O)C3=C(C(=O)C(C)=C(N)C3=O)N1C[C@@H]1N[C@@H]12 [MMC, mitomycinC, reference compound]",unchanged,1.6 µg/mL,–,–
Fe-transferrin-MMC,unchanged,–,20 % of total drug,0.5 ug MMC/ml
